Test results reported in patent US7033999B2, “Nitrosated and nitrosylated heme proteins” (Brigham and Women's Hospital, priority 1991, dated 2006).
One block for each compound: values may come before it.

Columns and labels:
gel-filtered platelets [1] = assay: Platelet aggregation (nephelometric aggregometry); type: cell-based, human
Description: Venous blood, anticoagulated with 1-mM trisodium citrate, was obtained from volunteers who had not consumed acetylsalicylic acid for at least ten days. Platelet-rich plasma (PRP) was prepared by centrifugation at 150 g for ten minutes at 25° C. Platelet counts were determined with a Coulter counter (model ZM; Coulter Electronics, Hialeah, Fla.).
Platelets were gel-filtered on a 4× 10 cm column of Sepharose 2B in Tyrode's Hepes buffer as described previously (Hawiger et al., Nature 2831:195–198 (1980), herein incorporated by reference). Platelets were typically suspended at a concentration of 1.5×10^8/ml and were used within 30 minutes of preparation. Platelet aggregation was monitored using a standard nephelometric technique (Born, et al., J. Physiol. 168:178–195 (1963), herein incorporated by reference), in which 0.3-ml aliquots of gel-filtered platelets were incubated at 37° C. and stirred at 1000 rpm in a PAP-4 aggregometer (Biodata, Hatboro, Pa.). Gel-filtered platelets were preincubated with t-PA or S—NO-t-PA for up to 45 minutes and aggregations induced with 5 μM ADP or 0.025 U/ml thrombin.
Aggregations were quantified by measuring the maximal rate or extent of light transmittance and expressed as a normalized value relative to control aggregations.
The effect of S-nitroso-BSA on platelet aggregation was studied, using a gel-filtered platelet preparation, as previously described (Hawiger et al., Nature 2831:195 (1980)) and suspended at 150,000 platelets/ul in HEPES buffer, pH 7.35. S—NO-BSA was incubated with platelets for ten minutes at 37° C. in a PAP-4 aggregometer (BioData, Hatboro, Pa.), after which aggregations were induced with 5 μM ADP. Aggregations were quantified by measuring the extent of change of light transmittance and expressed as a normalized value relative to control aggregations.

[2] = system: endothelium-denuded rabbit aortic strips; assay: Vessel relaxation bioassay; type: cell-based
Description: New Zealand White female rabbits weighing 3–4 kg were anesthetized with 30 mg/kg IV sodium pentobarbital. Descending thoracic aortae were isolated and placed immediately in a cold physiologic salt solution (Kreb's) (mM): NaCl, 118; CKl, 4.7; CaCl2, 2.5; MgSO4, 1.2; KH2PO4, 1.2; NaHCO3, 12.5; and D-glucose, 11.0. The vessels were cleaned of adherent connective tissue, and the endothelium removed by gentle rubbing with a cotton tipped applicator inserted into the lumen, after which the vessel was cut into 5 mm rings. The rings were mounted on stirrups and connected to transducers (model FT03C Grass Instruments, Quincy, Mass.) by which changes in isometric tension were recorded.
Samples were added to a standard bioassay in which vessel rings were suspended in glass chambers containing seven mil of oxygenated Kreb's buffer, in a standard bioassay (Cook et al., Am. J. Physiol. 28:H804 (1989), herein incorporated by reference). Sustained contractions, to 2 gm tension, were induced with 1 μM epinephrine, after which the effects of t-PA and S—NO-t-PA were tested. In certain experiments the guanylate cyclase inhibitor, methylene blue, was preincubated with vessel rings for 15 minutes prior to initiation of contractions.
The vasodilatory actions of S-nitroso-BSA were examined in a standard bioassay containing endothelium-denuded rabbit aortic strips in Kreb's buffer, pH 7.5, at 37°, as described in Example 6.
In vessel experiments, relaxations to S—NO-BSA are expressed as-percent of tone induced by 1.0 μM norepinephrine.

hemoglobin = hemoglobin (Bos taurus, UniProt P01966+P02070); conditions: for reaction at the redox metal (iron-binding site) of hemoglobin: UV spectrum, SNOAC over 15 minutes
gel-filtered platelets [3] = assay: Platelet aggregation (nephelometric aggregometry); type: cell-based, human; remark: listed apart in the source
[4] = Canine model of subtotal coronary artery occlusion; type: in vivo, dog
Excerpt: (§1) These extremely potent, but reversible anti-platelet properties in vivo are unmatched by classic nitrates. […] As shown in FIGS. 12–14, the constellation of anti-platelet effect, long duration of action, and increased coronary blood flow, is unmatched by other nitroso-compounds. Thus, S-nitroso-proteins have very unique hemodynamic and bioactive profiles.

[5] = Infusion into anesthetized dogs (blood pressure, coronary flow); type: in vivo, dog
Excerpt: as §1

trachea rings = assay: Airway smooth muscle relaxation, trachea rings; type: cell-based, guinea pig
Excerpt: (§2) Male Hartley guinea pigs (500–600 g) were anesthetized by inhalation of enflurane to achieve a surgical plane of anesthesia. The trachea were excised and placed in Kreb's-Hanseleit buffer (mM); NaCl 118, KCl 5.4, NaH2PO4 1.01, glucose 11.1, NaHCO3 25.0, MgSO4 0.69, CaCl 2.32, pH 7.4. The airways were then dissected free from surrounding fat and connective tissue and cut into rings 2–4 mm in diameter. The trachea rings were placed in sterile Medium 199 containing 1% antibiotic/antimycotic mixture in an atmosphere of 5% CO2, […], 55% N2 and kept for up to 48 hours in tissue culture. The experiments were also performed on human airways isolated by the same method.
(§3) Trachea rings were mounted on stirrups and connected to transducers (model FTO3C Grass), by which changes in isometric tension were measured. Rings were then suspended in 10 cc of oxygenated (95% O2, 5% CO2) buffer. Airway rings were equilibrated for 60 minutes under a load of 1 gm and then primed twice by exposure to 100 μM methacholine. The rings were contracted with various agonists at concentrations determined to generate 50% (±16% S.D.) of maximum tone, after which the effect of S—NO-BSA was assessed. In selected experiments, relaxation responses were determined in the presence of hemoglobin, or after rings had been preexposed to methylene blue for 30 minutes.

[6] = system: RFL-6 lung fibroblasts containing a soluble guanylate cyclase; assay: Cyclic GMP in cultured RFL-6 lung fibroblasts; type: cell-based
Description: Consonant with the mechanism of other nitro(so)-vasodilators (Ignarro, L. J. Circ. Res. 65:1 (1989)), relaxations were abolished by methylene blue, an inhibitor of guanylate cyclase (FIG. 11a). This mechanism was confirmed by showing that S-nitroso-BSA (18 μM) induces 3.5-fold increases (n=2) in cyclic GMP over basal levels relative to BSA alone in cultured RFL-6 lung fibroblasts containing a soluble guanylate cyclase exquisitely sensitive to NO (Forstermann et al., Mol. Pharmacol. 38:7 (1990)). Stimulation of guanylate cyclase by S-nitroso-BSA was attenuated by methylene blue.

[7] = Stability of S-nitroso-albumin in the presence of oxygen and redox metals; type: physicochemical; conditions: Cu^+, Fe^2+, or Cu^2+ (50 μM) or defuroxamine or EDTA (10 μM)
Description: The stability of S-nitroso-albumin in the presence of oxygen and redox metals was assessed.
In addition, S-nitroso-protein stability was assessed in the presence of various redox metals or chelating agents.

human airways [8] = assay: Airway cGMP levels; type: cell-based; conditions: 100 μM
Description: (§4) The effect of guanylate cyclase inhibitors upon S-nitroso-protein-induced airway relaxation and cGMP increase was assessed, using the previously described bioassay and cyclic nucleotide assay procedures. The bronchodilatory effect of S-nitroso-albumin was examined in human airways (5–12 mm outer diameter).

human airways [9] = assay: Bronchodilatory effect in human airways contracted with methacholine; type: cell-based
Excerpt: as §2, §3, §4

[10] = Hemoglobin-oxygen association curve; conditions: S-nitrosylation of hemoglobin
Excerpt: Thus, the reaction between S-nitrosothiols and hemoglobin not only eliminates the inhibition of oxygen binding which occurs from the reaction with uncharged NO and generation of methemoglobin, but it actually increases oxygen binding.

[11] = clinically used comparator; cited from earlier work
[12] = acidified NaNO2, NO gas or EDRF from endothelial cells

Sequence of hemoglobin (P01966 2-142): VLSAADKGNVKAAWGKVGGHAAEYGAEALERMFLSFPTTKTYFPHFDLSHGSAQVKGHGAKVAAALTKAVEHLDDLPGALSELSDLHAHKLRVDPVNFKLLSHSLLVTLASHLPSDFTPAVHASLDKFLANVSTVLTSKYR
Sequence of hemoglobin (P02070 whole entry): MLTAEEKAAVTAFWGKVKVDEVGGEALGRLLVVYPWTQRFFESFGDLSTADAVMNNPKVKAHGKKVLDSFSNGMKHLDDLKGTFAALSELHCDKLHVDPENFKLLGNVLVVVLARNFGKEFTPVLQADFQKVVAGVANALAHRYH

Compound: [N]=O [NO, nitric oxide, reference compound]
normalized extent of aggregation (gel-filtered platelets [1]; NO generated from NaNO2 (150 nM), n=5): 0.98±0.11 | effect on the extent of platelet aggregation (gel-filtered platelets [1]; NOx generated from NaNO2): no significant effect | % Relaxation ([2]; 150 nM, contraction with 1 μM epinephrine, mean ±S.D., n=4): 1.0 ± 1.7% | reaction at the redox metal (iron-binding site) of hemoglobin (hemoglobin): reacted instantaneously

Compound: O=N[O-].[Na+] [NaNO2, Sodium nitrite, reference compound]
effect on vessel tone (sentence negated: neither ... had) ([2]; concentrations up to 15 μM): any significant effect | effect on platelet aggregation (sentence negated: neither ... had) (gel-filtered platelets [3]; concentrations up to 15 μM): any significant effect

reaction at the redox metal (iron-binding site) of hemoglobin (hemoglobin): no reaction
Compound: CC(=O)N[C@@H](CSN=O)C(=O)O [SNOAC, S-nitroso-N-acetylcysteine]

Compound: NO-BSA: BSA loaded with NO at a ratio of 20:1 in 0.5 N HCl (Example 14)
vessel relaxation with increasing concentrations of NO loaded ([2]; BSA loaded with NO as in Example 14): increase in vessel relaxation

increases in cyclic GMP over basal levels relative to BSA alone ([6]; 18 μM, n=2): 3.5 fold | stimulation of guanylate cyclase in presence of methylene blue ([6]; methylene blue): attenuated
Compound: S-nitroso-BSA: S-nitrosylated bovine serum albumin
platelet inhibitory potency by method of synthesis (gel-filtered platelets [1]; [12]): essentially equipotent | vasorelaxant potency by method of synthesis [2, 12]: essentially equipotent | character of relaxation response ([2]; compared with EDRF, NO, low molecular weight S-nitrosothiols): less rapid, but much more persistent, relaxation response | bleeding times [4]: significantly prolonged | platelet-dependent cyclic thrombus formation [4]: inhibited | platelet inhibitory effect in platelet-rich plasma and whole blood (gel-filtered platelets [3]; 1.4 μM, impedance aggregometry for whole blood): confirmed | blood pressure [5]: prolonged decreases in blood pressure | coronary flow [5]: increased coronary flow | relaxation of airway smooth muscle (trachea rings; 0.01 μM): 50% | relaxation of airway smooth muscle (trachea rings; 10 μM): over 75%

IC50 (human airways [9]; rings contracted with methacholine (7 μM), read-out: IC50 of airway relaxation): 22 µM
Compound: S-nitroso-albumin: S-nitrosylated albumin used in Examples 17 and 18; likely the same as S-nitroso-BSA
decomposition in presence of redox metals or chelating agents [7]: resistant to decomposition | airway cGMP levels (human airways [8]): increases over control | effect of hemoglobin on airway relaxation (human airways [9]; hemoglobin (100 μM)): little effect | airway relaxation in presence of methylene blue or LY83583 (human airways [9]; methylene blue (10^−4) or LY83583 (5×10^−5)): not significantly inhibited

Compound: S-nitroso-hemoglobin: derived from the nitrosylation of hemoglobin
hemoglobin-oxygen association curve [10]: leftward shift | formation of methemoglobin (hemoglobin): does not result in the formation of methemoglobin

Compound: nitroprusside
effect on coronary flow [11]: deleterious effects on coronary flow
